Data: PubChem BioAssay AID434951 (Broad Institute, 2010)
Active and inactive are the calls of the source.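 Rule for the calls: active = a fitted half-maximal concentration EC50 for the rise in nuclear signal no higher than ten times the top dose tested; inconclusive = flat fit with activity between 30% and 70%, or unusable fit; inactive = EC50 beyond ten times the top dose.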

Target: Hypoxia-inducible factor 1-alpha (Homo sapiens) (UniProt Q16665)
Experiment: activators of HIF1alpha nuclear accumulation, confirmation, imaging, fluorescence, U2OS GFP-HIF1alpha (AID 434951)
Settings: U2OS GFP-HIF1alpha nuclear intensity, high-content imaging

Chain of Hypoxia-inducible factor 1-alpha (Homo sapiens) (Q16665 whole entry, looked up): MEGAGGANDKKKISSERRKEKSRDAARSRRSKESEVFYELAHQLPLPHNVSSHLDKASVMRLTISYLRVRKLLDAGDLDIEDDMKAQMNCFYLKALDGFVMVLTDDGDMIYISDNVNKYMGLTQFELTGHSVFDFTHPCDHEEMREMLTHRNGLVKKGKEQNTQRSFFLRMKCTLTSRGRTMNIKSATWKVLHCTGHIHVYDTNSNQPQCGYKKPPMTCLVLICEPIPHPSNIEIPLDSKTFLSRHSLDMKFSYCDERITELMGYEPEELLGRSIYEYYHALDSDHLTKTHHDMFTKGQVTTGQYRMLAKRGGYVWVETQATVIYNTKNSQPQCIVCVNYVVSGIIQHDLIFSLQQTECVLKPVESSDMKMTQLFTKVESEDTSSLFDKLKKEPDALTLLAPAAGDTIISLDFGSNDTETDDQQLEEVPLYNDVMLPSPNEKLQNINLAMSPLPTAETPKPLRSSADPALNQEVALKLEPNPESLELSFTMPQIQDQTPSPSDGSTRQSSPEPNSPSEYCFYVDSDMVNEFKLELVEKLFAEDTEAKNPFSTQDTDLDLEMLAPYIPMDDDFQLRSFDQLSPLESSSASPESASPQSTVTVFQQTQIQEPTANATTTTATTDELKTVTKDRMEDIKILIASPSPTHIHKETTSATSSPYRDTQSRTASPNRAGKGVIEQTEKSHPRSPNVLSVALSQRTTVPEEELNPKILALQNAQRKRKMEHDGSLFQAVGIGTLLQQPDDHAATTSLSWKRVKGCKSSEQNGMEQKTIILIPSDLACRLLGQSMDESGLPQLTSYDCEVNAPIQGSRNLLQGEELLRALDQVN

Row | Compound | EC50
1 | O=C(Nc1cccc(-c2cn3ccccc3n2)c1)C1CC1 | > 35 µM (inactive)
2 | CCN(CC)c1ccc(/C=N/NC(=O)c2cnccn2)c(O)c1 | 9.54 µM
3 | CCN(CC)c1ccc(/C=N/NC(=O)c2c(Cl)cnn2C)c(O)c1 | 2.05 µM
4 | Cc1ccc(C)c(OCC(=O)N2CCN(Cc3ccc4c(c3)OCO4)CC2)c1 | > 35 µM (inactive)
5 | COc1nccc(C(F)(F)F)c1C(=O)NC(=O)Nc1ccccc1 | > 35 µM (inactive)
6 | CCN(CC)CCOC(=O)C(Cc1ccco1)Cc1cccc2ccccc12 (configuration not stated) | > 35 µM (inactive)
7 | O=C(c1ccc(Cl)cc1Cl)N1CCN(c2ccc(N3CCOCC3)nn2)CC1 | > 35 µM (inactive)
8 | CC(C)C(=O)N1CCN(c2nc3ccc(Cl)cc3s2)CC1 | > 35 µM (inactive)
9 | COc1ccccc1C(=O)Oc1ccccc1C(=O)Nc1ccccc1 | > 35 µM (inactive)
10 | Nc1nc(SCC(=O)N2CCCC2)[nH]c(=O)c1-c1ccccc1 | > 35 µM (inactive)
11 | O=C(CCN1C(=O)S/C(=C\c2ccc(F)cc2)C1=O)Nc1ccc(C(=O)O)c(O)c1 | > 35 µM (inactive)
12 | COc1ccc(OC)c(NC(=O)CCc2nnc3ccc(NCc4ccco4)nn23)c1 | > 35 µM (inactive)
13 | c1cnc(N2CCN(c3ccc4ccccc4n3)CC2)nc1 | > 35 µM (inactive)
14 | COC(=O)c1ccc(CSc2nc3c(c(=O)n2-c2ccc(F)cc2)SCC3)o1 | > 35 µM (inactive)
15 | COc1cccc(CNC(=O)CCCn2c(=S)[nH]c3cc4c(cc3c2=O)OCO4)c1 | > 35 µM (inactive)
16 | O=c1cc(CO)[nH]cc1OCc1ccccc1 | > 35 µM (inactive)
17 | COc1ccc(CCNC(=O)COC(=O)CCC(=O)c2ccc(F)cc2)cc1OC | > 35 µM (inactive)
18 | CN(Cc1ccccc1)C(=O)CC(=O)N(C)Cc1ccccc1 | > 35 µM (inactive)
19 | COc1ccc2ccccc2c1/C=N/Nc1cccc(C(=O)O)c1 | > 35 µM (inactive)
20 | O=C(O)c1cccc(N2CCCC2=O)c1 | > 35 µM (inactive)
21 | CC1(C)CC(NC(=O)CCC2CCCC2)CC(C)(C)N1 | > 35 µM (inactive)
22 | CS(=O)(=O)n1nc(-c2ccccc2)nc1NCc1ccco1 | > 35 µM (inactive)

Row | Compound | EC50
23 | COc1ccc(C(=O)Nc2ccc(C(=O)NCCc3ccc(OC)c(OC)c3)cc2)cc1 | > 35 µM (inactive)
24 | CCOC(=O)C(=CNc1ccc(NC2=NCC(C)S2)cc1)C(=O)OCC (configuration not stated) | 8.3 µM
25 | Cc1ccc(-n2nc3c(=O)n(CC(=O)NCc4ccccc4)nc(C)c3c2C)cc1 | > 35 µM (inactive)
26 | O=C(Nc1ccccc1O)c1ccc(NC(=O)C2CC2)cc1 | 10.8 µM
27 | COC(CN(C(=O)CCl)C(C(=O)NC1CCCCC1)c1ccc(Cl)cc1)OC (configuration not stated) | 19 µM
28 | CCCCc1ccc(NC(=O)C2CCN(S(C)(=O)=O)CC2)cc1 | > 35 µM (inactive)
29 | COc1cc2ccccc2cc1C(=O)Nc1ccc(C)cc1 | > 35 µM (inactive)
30 | O=C(NCc1ccccc1)C(=O)c1cn(CC(=O)N2CCOCC2)c2ccccc12 | > 35 µM (inactive)
31 | Cc1ccc(CSc2nnc(CCCCCNC(=O)OC(C)(C)C)o2)cc1 | > 35 µM (inactive)
32 | CCC1CCc2sc(C(=O)O)cc2C1 (configuration not stated) | > 35 µM (inactive)
33 | Cc1cc(C)nc(N/N=C/c2cc(Br)ccc2O)n1 | 8.31 µM
34 | COc1ccccc1-c1cc(C(F)(F)F)nc(S(C)(=O)=O)n1 | 18 µM
35 | Cc1ccc(NC(=O)Cn2cnc3c(=O)n(C)c(=O)n(C)c32)c(C)c1 | > 35 µM (inactive)
36 | Nc1cc2c3c(cccc3c1)C(=O)N(CCN1CCCC1)C2=O | 16.4 µM
37 | COc1ccc(-n2c(C)csc2=S)cc1 | > 35 µM (inactive)
38 | O=C(NCCc1csc(-c2cccc(F)c2)n1)c1ccco1 | > 35 µM (inactive)
39 | Cc1cc(C(=O)O)oc(=O)c1 | > 35 µM (inactive)
40 | Fc1ccc(CSc2ccc(-c3ccco3)nn2)cc1 | > 35 µM (inactive)
41 | Cc1ccc(-c2cc(C(=O)N3CCCCCC3)no2)cc1 | > 35 µM (inactive)
42 | Cc1onc(-c2ccccc2)c1NC(=O)N(Cc1ccccc1)C(C)C | > 35 µM (inactive)
43 | O=C(C1CCCN(Cc2ccccc2F)C1)N1CCc2ccccc2C1 (configuration not stated) | > 35 µM (inactive)
44 | COc1cccc(/C=N/NC(=O)c2[nH]nc3c2CCc2ccccc2-3)c1O | 1.94 µM

Row | Compound | EC50
45 | O=C(CN1C(=O)COc2ccc(Cl)cc21)Nc1ccc2c(c1)OCCO2 | > 35 µM (inactive)
46 | Cc1ccc(/C=N/NC(=O)CN2CCN(Cc3ccccc3Cl)CC2)o1 | > 35 µM (inactive)
47 | COc1cc(SC)ccc1C(=O)Nc1ccc(C)cc1C | > 35 µM (inactive)
48 | C/C(=N\NC(=O)Cc1ccc(Br)cc1)c1cccnc1 | > 35 µM (inactive)
49 | CC1=NC(C#N)=C(C#N)NC(C)(C)C1 | > 35 µM (inactive)
50 | Brc1ccc(N/N=C(/N=Nc2nn[nH]n2)c2ccccc2)cc1 | 5.73 µM
51 | Cc1nnc(N/N=C/c2ccccn2)[nH]c1=O | 5.75 µM
52 | [O-]/C(=C(\C(=S)Nc1cccc2ccccc12)[n+]1ccccc1)c1cccs1 | > 35 µM (inactive)
53 | Clc1ccc(CSc2ccc(-c3ccccn3)nn2)cc1 | 9.44 µM
54 | COc1ccccc1OCc1nnc(SCC(=O)NCc2ccco2)n1-c1ccccc1 | > 35 µM (inactive)
55 | CCN(CC)S(=O)(=O)c1cccc(C(=O)N/N=C(\C)c2ccc(O)cc2O)c1 | 2.12 µM
56 | CCC(=O)N1CCN(c2nc3ccc(Br)cc3s2)CC1 | > 35 µM (inactive)
57 | Cc1ccc(C(=O)Nc2ccc3c(c2)nc(CCNC(=O)c2ccco2)n3C)cc1 | > 35 µM (inactive)
58 | COc1ccc(CNS(=O)(=O)c2cc3c4c(c2)C(C)C(=O)N4CCC3)cc1 (configuration not stated) | > 35 µM (inactive)
59 | O=C(Nc1nc2c(F)cc(F)cc2s1)c1ccccn1 | 5.5 µM
60 | CCC1CCCCN1CCCNC(=O)C1CCN(c2nnc(-n3cccc3)s2)CC1 (configuration not stated) | > 35 µM (inactive)
61 | COc1ccc(OC)c(CNC(=O)C2CCCN(S(=O)(=O)N3CCC(C)CC3)C2)c1 (configuration not stated) | > 35 µM (inactive)
62 | Cc1ccc(-c2nnc(Sc3nc4ccccc4o3)c3ccccc23)cc1 | 16.9 µM
63 | Cc1cc(NC(=O)c2ccccc2)n(-c2nc3ccccc3[nH]2)n1 | 27 µM
64 | Cc1nn(C)cc1S(=O)(=O)NCc1ccc2c(c1)OCO2 | > 35 µM (inactive)
65 | Cc1nn(C(=O)c2cccnc2)c(C)c1Sc1ccccc1 | > 35 µM (inactive)
66 | CCCCNC(=S)Nc1ccc2cn[nH]c2c1 | > 35 µM (inactive)

Row | Compound | EC50
67 | COc1ccc2cc3cc(C(=O)N4CCN(c5ccccn5)CC4)oc3nc2c1 | > 35 µM (inactive)
68 | O=C(Nc1ccc2ccccc2c1)c1ccccc1O | > 35 µM (inactive)
69 | CCCCn1c(=O)[nH]c(=O)c2c(C(=O)OCC)cc(-c3cccs3)nc21 | > 35 µM (inactive)
70 | CCC(=O)c1ccc(N2CCN(C(=O)c3ccc(Br)cc3)CC2)c(F)c1 | > 35 µM (inactive)
71 | O=C(/C=C/c1ccccc1)NCCc1nc2ccccc2[nH]1 | > 35 µM (inactive)
72 | COC(=O)Nc1ccc(S(=O)(=O)N(C)C)cc1 | > 35 µM (inactive)
73 | COc1cc(C(=O)Nc2sc(C)c(C)c2C(=O)O)cc(OC)c1OC | > 35 µM (inactive)
74 | CS(=O)(=O)c1ccc2nc(NC(=O)C3CC3)sc2c1 | > 35 µM (inactive)
75 | COC(=O)[C@H](CCSC)NC(=O)c1cccnc1SC | > 35 µM (inactive)
76 | COc1ccc(N=C2C(=O)N3CCCc4cccc2c43)cc1 | > 35 µM (inactive)
77 | O=C(N/N=C(\c1ccccc1)c1cccnc1)c1cccc(F)c1 | 2.62 µM
78 | O=C(c1cc(Br)ccc1Cl)N1CCC2(CC1)OCCO2 | > 35 µM (inactive)
79 | Cn1c(CCNC(=O)c2ccco2)nc2cc(NC(=O)C3CCCCC3)ccc21 | > 35 µM (inactive)
80 | CC(=O)Nc1ccc(Nc2nc(C)c([N+](=O)[O-])c(Nc3ccc(NC(C)=O)cc3)n2)cc1 | > 35 µM (inactive)
81 | CC(=O)NC(c1ccc(C)cc1)c1cc(Cl)c2cccnc2c1O (configuration not stated) | 16.6 µM
82 | CCC(C)NCCOc1ccc(C)cc1[N+](=O)[O-] (configuration not stated) | > 35 µM (inactive)
83 | Cc1ccc(S(=O)(=O)N(C)CC(=O)NCCCn2ccnc2)cc1 | > 35 µM (inactive)
84 | Cc1cc(C)c2nc(N3CCN(C(=O)c4ccco4)CC3)sc2c1 | > 35 µM (inactive)
85 | O=C(N/N=C/c1cc([N+](=O)[O-])ccc1O)c1cccc2cc[nH]c12 | 20.8 µM
86 | CC(C)c1onc(C(=O)Nc2sc3c(c2C#N)CCC3)c1[N+](=O)[O-] | > 35 µM (inactive)
87 | COc1ccc2[nH]c(C(=O)N/N=C/c3ccc(O)cc3O)cc2c1 | 8.67 µM
88 | CCOc1cccc(-c2c(C(=O)N/N=C/c3ccc(Br)cc3)nnn2-c2nonc2N)c1 | > 35 µM (inactive)

Row | Compound | EC50
89 | FC(F)(F)c1ccc(CSc2ccccn2)cc1 | > 35 µM (inactive)
90 | CC(=O)c1cccc(NC(=O)CN(C)S(=O)(=O)c2cccc3nsnc23)c1 | > 35 µM (inactive)
91 | O=C1NC(=O)/C(=C/c2ccc(OS(=O)(=O)c3ccc(F)cc3F)cc2)N1 | > 35 µM (inactive)
92 | Oc1ccc(-c2cn3ccccc3n2)cc1O | > 35 µM (inactive)
93 | CCc1ccc(C2C(=O)c3ccccc3C2=O)cc1 | > 35 µM (inactive)
94 | N#CC(=C=[N-])c1nc2ccccc2nc1-[n+]1cccc(NC(=O)c2ccc(F)cc2)c1 | > 35 µM (inactive)
95 | Oc1ccc(CN2CCc3ccccc3C2)c2cccnc12 | 2.4 µM
96 | CCN(CC)c1ccc(/C=N/NC(=O)c2ccoc2C)c(O)c1 | 10.9 µM
97 | O=S(=O)(NCc1nnc2c(C(F)(F)F)cc(Cl)cn12)c1ccccc1 | > 35 µM (inactive)
98 | O=C(NNC(=O)C(O)(c1ccccc1)c1ccccc1)C1CC1 | > 35 µM (inactive)
99 | CCN(CC)S(=O)(=O)c1ccc(N/N=C/c2cc(OC)ccc2O)nc1 | 4.31 µM
100 | CCN1CN(CCc2ccccc2)CNC1=S | > 35 µM (inactive)
101 | O=C(CSC1c2ccccc2-c2ccccc21)N/N=C/c1ccccc1O | 6.46 µM
102 | O=C1CCCN2N=C(SCC(=O)Nc3ccc(Br)cc3)SC2=N1 | 26.7 µM
103 | CCOC(=O)c1c(NC(=O)CCC(=O)O)sc2c1CCCCC2 | > 35 µM (inactive)
104 | CCN(CCCCCN(C)C)Cc1cc2ccccc2o1 | > 35 µM (inactive)
105 | COc1ccc2nc(NC(=O)c3cccs3)sc2c1 | > 35 µM (inactive)
106 | Cn1ncc(Br)c1C(=O)OCC(=O)Nc1nc(-c2ccccc2)cs1 | > 35 µM (inactive)
107 | Cc1cc(C)c2c(N)c3ccccc3nc2n1 | 17.4 µM
